From patent US20030232994A1, “Bicyclic thiophene derivatives and combinatorial libraries thereof” (priority 2001, published 2003)

Test system: Streptococcus pyogenes (ATCC# 97-03 14289)
Assay: Anti-microbial screen (growth inhibition, OD 570 nm)
Assay type: cell-based
Settings: growth in Todd Hewitt Broth, plates read at 570 nm at 0 time and 4 hours, color corrected
Procedure: Streptococcus pyogenes (ATCC# 97-03 14289) was grown in Todd Hewitt Broth (THB) (Difco Laboratories #0492-17-6) overnight until reaching an optical density of (OD=0.636 @ 570 nm) by reading 0.1 ml in a 96 well microtiter plate in a Molecular Devices Thermomax. This preparation was kept frozen as stocks in 30% v/v glycerol in 1.5 ml aliquots at −70^mC. until use. Prior to experiments, […] aliquots were thawed and diluted into 50 ml 2×THB. 60 ul of this dilution was added to 92 wells of microtiter plate. To three wells THB (200 ul) was added to serve as a blank and a sterility control. Test compounds in DMSO and appropriate concentrations of DMSO were added to Growth/Solvent Controls at 0 time. Plates were read at 0 time at 570 nm in the Molecular Devices plate reader to obtain compounds correction factors for insoluble or colored compounds. Plates were read again at 4 hours.
Percent inhibition is calculated with the following formulae: [drawing 4]
Color correct=O.D. 0 hr−Blank 0 hr)−(Solvent Control 0 hr−Blank 0 hr)
% Inhibition=100−O.D. test compound 4 hr−Blank 4 hr−color correct O.D. growth/solvent control 4 hr−Blank 4 hr

| SMILES | % Inhibition [%] |
| --- | --- |
| CCCc1ccc(C(=O)Nc2sc3c(c2C(=O)O)CCN(C(=O)c2cccnc2SC)C3)cc1 | 86.05 |
| Cc1ccsc1C(=O)N1CCc2c(sc(NC(=O)c3ccccc3)c2C(=O)O)C1 | 93.13 |
| O=C(Nc1sc2c(c1C(=O)O)CCN(C(=O)c1ccc(C(F)(F)F)cc1)C2)c1ccc2ccccc2c1 | 63.29 |
| O=C(Nc1sc2c(c1C(=O)O)CCN(C(=O)c1ccc(Cl)cc1)C2)c1ccccc1Cl | 72.75 |
| COc1cccc(C(=O)Nc2sc3c(c2C(=O)O)CCN(C(=O)c2ccccc2C)C3)c1 | 74.32 |
| CCc1ccc(C(=O)Nc2sc3c(c2C(=O)O)CCN(C(=O)CCc2ccc(F)c(F)c2)C3)cc1 | 85.13 |
| CC(C)CC(=O)N1CCc2c(sc(NC(=O)c3ccc4ccccc4c3)c2C(=O)O)C1 | 77.94 |
| CCCc1ccc(C(=O)Nc2sc3c(c2C(=O)O)CCN(C(=O)c2cccnc2OCC)C3)cc1 | 92.34 |
| Cc1ccccc1C(=O)N1CCc2c(sc(NC(=O)c3ccc4ccccc4c3)c2C(=O)O)C1 | 78.88 |
| CCC(C(=O)Nc1sc2c(c1C(=O)O)CCN(C(=O)c1cccc3ccccc13)C2)c1ccccc1 (stereo not drawn) | 62.49 |
| Cc1ccsc1C(=O)N1CCc2c(sc(NC(=O)c3ccc(C(C)(C)C)cc3)c2C(=O)O)C1 | 68.74 |
| CCCCOc1ccc(C(=O)Nc2sc3c(c2C(=O)O)CCN(C(=O)c2cc4ccccc4s2)C3)cc1 | 89.4 |
| CCC(C(=O)Nc1sc2c(c1C(=O)O)CCN(C(=O)c1cc3ccccc3s1)C2)c1ccccc1 (stereo not drawn) | 66.79 |
| CCC(=O)N1CCc2c(sc(NC(=O)c3ccc4ccccc4c3)c2C(=O)O)C1 | 62.98 |
| O=C(CCC1CCCC1)Nc1sc2c(c1C(=O)O)CCN(C(=O)/C=C/c1ccc(Cl)cc1)C2 | 67.51 |
| CCCc1ccc(C(=O)Nc2sc3c(c2C(=O)O)CCN(C(=O)c2ccccc2Cl)C3)cc1 | 86.38 |
| COc1cccc(C(=O)N2CCc3c(sc(NC(=O)C4CCCCC4)c3C(=O)O)C2)c1OC | 61.06 |
| O=C(Nc1sc2c(c1C(=O)O)CCN(C(=O)c1ccco1)C2)c1ccccc1 | 96.39 |
| O=C(Nc1sc2c(c1C(=O)O)CCN(C(=O)c1cccc3ccccc13)C2)c1ccccc1Cl | 65.9 |
| O=C(Nc1sc2c(c1C(=O)O)CCN(C(=O)c1ccccc1Cl)C2)c1ccc(Cl)cc1 | 62.91 |
| O=C(Nc1sc2c(c1C(=O)O)CCN(C(=O)c1ccc(F)c(F)c1)C2)c1ccc(Cl)cc1 | 82.59 |
| CCC(C(=O)Nc1sc2c(c1C(=O)O)CCN(C(=O)/C=C/c1ccc(Cl)cc1)C2)c1ccccc1 (stereo not drawn) | 82.18 |
| Cc1c(F)cccc1C(=O)N1CCc2c(sc(NC(=O)C3CCCCC3)c2C(=O)O)C1 | 63.92 |
| CCc1ccc(C(=O)Nc2sc3c(c2C(=O)O)CCN(C(=O)c2ccc(Cl)cc2)C3)cc1 | 74.97 |
| CC(=O)Nc1ccc(C(=O)N2CCc3c(sc(NC(=O)c4ccccc4Cl)c3C(=O)O)C2)cc1 | 76.33 |
| O=C(O)c1c(NC(=O)C2CCCCC2)sc2c1CCN(C(=O)/C=C/c1ccc(Cl)cc1)C2 | 67.5 |

| SMILES | % Inhibition [%] |
| --- | --- |
| O=C(Nc1sc2c(c1C(=O)O)CCN(C(=O)c1ccsc1)C2)c1ccco1 | 66.72 |
| COc1cccc(C(=O)N2CCc3c(sc(NC(=O)c4ccc(Cl)cc4)c3C(=O)O)C2)c1OC | 77.82 |
| Cc1ccc(C(=O)N2CCc3c(sc(NC(=O)c4ccc5ccccc5c4)c3C(=O)O)C2)cn1 | 62.67 |
| O=C(Nc1sc2c(c1C(=O)O)CCN(C(=O)c1ccc(C(F)(F)F)cc1)C2)c1ccccc1Cl | 64.41 |
| O=C(CCC1CCCC1)Nc1sc2c(c1C(=O)O)CCN(C(=O)c1ccc(F)c(F)c1)C2 | 61.45 |
| COc1cccc(C(=O)N2CCc3c(sc(NC(=O)c4ccc5ccccc5c4)c3C(=O)O)C2)c1OC | 64.54 |
| CCOc1ncccc1C(=O)N1CCc2c(sc(NC(=O)c3ccc(Cl)cc3)c2C(=O)O)C1 | 79.31 |
| O=C(Nc1sc2c(c1C(=O)O)CCN(C(=O)c1cccc3ccccc13)C2)c1ccccc1 | 83.81 |
| CC(CC(=O)Nc1sc2c(c1C(=O)O)CCN(C(=O)c1ccc(Cl)cc1)C2)CC(C)(C)C (stereo not drawn) | 63.48 |
| Cc1ccc(C(=O)N2CCc3c(sc(NC(=O)c4ccc(C(C)(C)C)cc4)c3C(=O)O)C2)c(C)c1 | 82.83 |
| CCC(C(=O)Nc1sc2c(c1C(=O)O)CCN(C(=O)c1ccccc1SC)C2)c1ccccc1 (stereo not drawn) | 68.58 |
| CCCc1ccc(C(=O)Nc2sc3c(c2C(=O)O)CCN(C(=O)c2cccc(F)c2C)C3)cc1 | 99.63 |
| O=C(Nc1sc2c(c1C(=O)O)CCN(C(=O)CCc1ccc(F)c(F)c1)C2)c1ccccc1 | 74.96 |
| O=C(Nc1sc2c(c1C(=O)O)CCN(C(=O)c1cc3ccccc3s1)C2)c1ccccc1 | 67.5 |
| CC(C)CC(=O)N1CCc2c(sc(NC(=O)c3ccc(Cl)cc3)c2C(=O)O)C1 | 84.68 |
| O=C(Nc1sc2c(c1C(=O)O)CCN(C(=O)/C=C/c1ccccc1Cl)C2)c1c(F)cccc1F | 77.66 |
| CC(C)(C)c1ccc(C(=O)Nc2sc3c(c2C(=O)O)CCN(C(=O)c2ccsc2)C3)cc1 | 82.18 |
| CCCc1ccc(C(=O)Nc2sc3c(c2C(=O)O)CCN(C(=O)c2ccc(Cl)cc2)C3)cc1 | 64.18 |
| COc1cccc(C(=O)Nc2sc3c(c2C(=O)O)CCN(C(=O)c2ccc(F)c(F)c2)C3)c1 | 75.77 |
| CCc1ccc(C(=O)Nc2sc3c(c2C(=O)O)CCN(C(=O)c2cn(C)c4ccccc24)C3)cc1 | 62.19 |
| CCCc1ccc(C(=O)Nc2sc3c(c2C(=O)O)CCN(C(=O)CC2CCCC2)C3)cc1 | 61.53 |
| O=C(Nc1sc2c(c1C(=O)O)CCN(C(=O)c1ccsc1)C2)c1ccccc1Cl | 85.87 |
| CCOc1ncccc1C(=O)N1CCc2c(sc(NC(=O)c3ccccc3)c2C(=O)O)C1 | 95.92 |
| CC(C)(C)c1ccc(C(=O)Nc2sc3c(c2C(=O)O)CCN(C(=O)c2ccc(C(F)(F)F)cc2)C3)cc1 | 59.57 |
| Cc1ccccc1C(=O)N1CCc2c(sc(NC(=O)C3CCCCC3)c2C(=O)O)C1 | 69.29 |
| Cn1cc(C(=O)N2CCc3c(sc(NC(=O)c4ccccc4)c3C(=O)O)C2)c2ccccc21 | 87.54 |

| SMILES | % Inhibition [%] |
| --- | --- |
| O=C(Nc1sc2c(c1C(=O)O)CCN(C(=O)c1ccccc1Cl)C2)c1ccc2ccccc2c1 | 63.6 |
| COc1ccc(OC)c(C(=O)N2CCc3c(sc(NC(=O)c4ccc5ccccc5c4)c3C(=O)O)C2)c1 | 86.36 |
| CCCc1ccc(C(=O)Nc2sc3c(c2C(=O)O)CCN(C(=O)c2ccccc2SC)C3)cc1 | 90.02 |
| CCCSc1ncccc1C(=O)N1CCc2c(sc(NC(=O)c3ccccc3Cl)c2C(=O)O)C1 | 94.82 |
| COc1cccc(C(=O)Nc2sc3c(c2C(=O)O)CCN(C(=O)c2ccc(Cl)cc2)C3)c1 | 90.32 |
| CC(C)(C)c1ccc(C(=O)Nc2sc3c(c2C(=O)O)CCN(C(=O)c2ccc(F)cc2F)C3)cc1 | 86.77 |
| CCc1ccc(C(=O)Nc2sc3c(c2C(=O)O)CCN(C(=O)c2ccc(Cl)cc2OC)C3)cc1 | 62.84 |
| CC(C)(C)c1ccc(C(=O)Nc2sc3c(c2C(=O)O)CCN(C(=O)c2ccc(F)c(F)c2)C3)cc1 | 75.95 |
| O=C(Nc1sc2c(c1C(=O)O)CCN(C(=O)c1ccco1)C2)c1ccccc1Cl | 78.12 |
| Cc1c(F)cccc1C(=O)N1CCc2c(sc(NC(=O)c3ccco3)c2C(=O)O)C1 | 72.33 |
| O=C(Nc1sc2c(c1C(=O)O)CCN(C(=O)c1cccc(Cl)c1)C2)c1ccccc1 | 94.99 |
| CCCc1ccc(C(=O)Nc2sc3c(c2C(=O)O)CCN(C(=O)c2ccc(F)cc2F)C3)cc1 | 88.03 |
| O=C(Nc1sc2c(c1C(=O)O)CCN(C(=O)CCc1ccc(F)c(F)c1)C2)c1ccccc1Cl | 94.52 |
| Cc1ccc(C(=O)N2CCc3c(sc(NC(=O)c4ccccc4Cl)c3C(=O)O)C2)cn1 | 69.18 |
| O=C(Nc1sc2c(c1C(=O)O)CCN(C(=O)c1ccc(C(F)(F)F)cc1)C2)c1c(F)cccc1F | 59.67 |
| Cc1noc(C)c1C(=O)N1CCc2c(sc(NC(=O)c3ccccc3)c2C(=O)O)C1 | 96.39 |
| COc1cccc2cc(C(=O)N3CCc4c(sc(NC(=O)c5ccccc5)c4C(=O)O)C3)oc12 | 76.35 |
| CC(C)C(=O)N1CCc2c(sc(NC(=O)c3ccc(C(C)(C)C)cc3)c2C(=O)O)C1 | 77.26 |
| CC(CC(=O)Nc1sc2c(c1C(=O)O)CCN(C(=O)CC1CCCC1)C2)CC(C)(C)C (stereo not drawn) | 81.9 |
| O=C(Nc1sc2c(c1C(=O)O)CCN(C(=O)c1cc3ccccc3s1)C2)c1ccco1 | 96.65 |
| CCCc1ccc(C(=O)Nc2sc3c(c2C(=O)O)CCN(C(=O)c2cc(OC)ccc2OC)C3)cc1 | 60.54 |
| O=C(Nc1sc2c(c1C(=O)O)CCN(C(=O)/C=C/c1ccc(Cl)cc1)C2)c1ccccc1 | 93.13 |
| CCCc1ccc(C(=O)Nc2sc3c(c2C(=O)O)CCN(C(=O)c2ccc(F)c(F)c2)C3)cc1 | 86.71 |
| CC(C)(C)c1ccc(C(=O)Nc2sc3c(c2C(=O)O)CCN(C(=O)c2cccc4ccccc24)C3)cc1 | 73 |
| CC(=O)Nc1cccc(C(=O)N2CCc3c(sc(NC(=O)c4ccccc4)c3C(=O)O)C2)c1 | 96.85 |
| Cc1ccccc1C(=O)N1CCc2c(sc(NC(=O)[C@]34C[C@H]5C[C@@H](C[C@H](C5)C3)C4)c2C(=O)O)C1 | 61.84 |
